Results reported in ChEMBL document CHEMBL1123140, “Acylamino boronic acids and difluoroborane analogues of amino acids: potent inhibitors of chymotrypsin and elastase” (J Med Chem, 1985).

Tests used:
Chymotrypsinogen B = Chymotrypsinogen B (Homo sapiens, UniProt P17538); test: Competitive inhibition of alpha-chymotrypsin
[1] = Competitive inhibition of porcine elastase by the compound was evaluated; design: species or system Sus scrofa

Chymotrypsinogen B, sequence (P17538 34-164 limits assumed, other chains not shown): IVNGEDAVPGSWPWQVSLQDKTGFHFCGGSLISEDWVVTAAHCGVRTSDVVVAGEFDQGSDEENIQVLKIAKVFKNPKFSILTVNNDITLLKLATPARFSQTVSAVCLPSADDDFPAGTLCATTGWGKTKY
Chymotrypsinogen B, sequence (P17538 167-263 limits assumed, other chains not shown): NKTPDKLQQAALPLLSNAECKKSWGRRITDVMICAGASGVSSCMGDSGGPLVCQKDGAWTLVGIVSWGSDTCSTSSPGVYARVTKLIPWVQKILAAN

## CC(=O)N[C@@H](Cc1ccccc1)B(F)F
Chymotrypsinogen B
  Ki: 1700 nM

## O=C(NC(Cc1ccccc1)B(O)O)c1ccccc1 (stereo not given)
Chymotrypsinogen B
  Ki: 650 nM

## O=C(N[C@@H](Cc1ccccc1)B(O)O)c1ccccc1
Chymotrypsinogen B
  Ki: 360 nM

## CC[C@H](C)[C@H](NC(=O)C(C)NC(=O)OCc1ccccc1)B(F)F (stereo not given in full)
[1]
  Ki: 100 nM

## CC(NC(=O)OCc1ccccc1)C(=O)NC(B(F)F)c1ccccc1 (stereo not given)
Chymotrypsinogen B
  Ki: 2000 nM

## CC[C@H](C)[C@H](NC(=O)C(C)NC(=O)OCc1ccccc1)B(O)O (stereo not given in full)
[1]
  Ki: 120 nM

## CC(=O)NC(Cc1ccccc1)B(F)F (stereo not given)
Chymotrypsinogen B
  Ki: 7400 nM

## O=C(NC(B(F)F)c1ccccc1)c1ccccc1 (stereo not given)
Chymotrypsinogen B
  Ki: 5000 nM

## O=C(NC(Cc1ccccc1)B(F)F)c1ccccc1 (stereo not given)
Chymotrypsinogen B
  Ki: 650 nM

## CC(NC(=O)OCc1ccccc1)C(=O)N[C@H](B(O)O)C(C)C (stereo not given in full)
[1]
  Ki: 1100 nM

## CC(NC(=O)OCc1ccccc1)C(=O)N[C@H](B(F)F)C(C)C (stereo not given in full)
[1]
  Ki: 1000 nM

## CC(NC(=O)OCc1ccccc1)C(=O)N[C@@H](C)B(F)F (stereo not given in full)
[1]
  Ki: 34500 nM

## CC(=O)N[C@@H](Cc1ccccc1)B(O)O
Chymotrypsinogen B
  Ki: 2100 nM

## O=C(N[C@@H](Cc1ccccc1)B(F)F)c1ccccc1
Chymotrypsinogen B
  Ki: 270 nM

## CC(=O)NC(Cc1ccccc1)B(O)O (stereo not given)
Chymotrypsinogen B
  Ki: 6500 nM
